Test results: US9738637B2, “Histone demethylase inhibitors” (Quanticel Pharmaceuticals, Inc., priority 2013, dated 2017)

What was measured:
[1] = target: JMJD2C (Homo sapiens (Human), UniProt Q9H3R0); assay: JMJD2C in vitro enzyme inhibition assay (TR-FRET); format: biochemical; conditions: TR-FRET, H3K9me3-biotin peptide; read-out: IC50 JNJD2C
Protocol: (§1) This assay determines the ability of a test compound to inhibit Jarid1A, Jarid1B, JMJD2C, and JMJD2A demethylase activity.
(§2) Reaction product was determined quantitatively by TR-FRET after the addition of detection reagent Phycolink Streptavidin-allophycocyanin (Prozyme) and Europium-anti-di-methylated histone H3 lysine 9 (H3K9me2) antibody (PerkinElmer) in the presence of 5 mM EDTA in LANCE detection buffer (PerkinElmer) at a final concentration of 50 nM and 1 nM, respectively.
(§3) The assay reaction was initiated by the following: 2 μl of the mixture of 900 nM H3K9me3-biotin labeled peptide and 6 μM alpha-ketoglutaric acid with 2 μl of 11-point serial diluted inhibitor in 3% DMSO were added to each well of the plate, followed by the addition of 2 μl of 0.9 nM JMJD2C to initiate the reaction. The reaction mixture was incubated at room temperature for 30 minutes, and terminated by the addition of 6 μl of 5 mM EDTA in LANCE detection buffer containing 100 nM Phycolink Streptavidin-allophycocyanin and 2 nM Europium-anti-H3K9me2 antibody.
(§4) The ability of the compounds disclosed herein to inhibit demethylase activity was quantified and the respective IC50 value was determined.

[2] = target: Jarid1B (Homo sapiens (Human), UniProt Q9UGL1); assay: Jarid1B in vitro enzyme inhibition assay (TR-FRET); format: biochemical; conditions: TR-FRET, H3K4me3-biotin peptide; read-out: IC50 Jarid1B
Protocol: as §1
The reaction mixture was incubated at room temperature for 30 minutes, and terminated by the addition of 6 μl of 5 mM EDTA in LANCE detection buffer containing 50 nM Phycolink Streptavidin-allophycocyanin and 2 nM Europium-anti-H3K4me1-2 antibody.
as §4

[3] = target: JMJD2A (Homo sapiens (Human), UniProt O75164); assay: JMJD2A in vitro enzyme inhibition assay (TR-FRET); format: biochemical; conditions: H3K9me3-biotin peptide
Protocol: as §1, §2
as §3, with “well of plate, followed” for “well of the plate, followed”, “μl of 6 nM JMJD2A” for “μl of 0.9 nM JMJD2C”, “6 nM JMJD2A to initiate” for “0.9 nM JMJD2C to initiate”
as §4

[4] = target: Jarid1A (Homo sapiens (Human), UniProt P29375); assay: Jarid1A in vitro enzyme inhibition assay (TR-FRET); format: biochemical; conditions: H3K4me3-biotin peptide
Protocol: as §1
The enzymatic assay of Jarid1A activity is based upon Time Resolved-Fluorescence Resonance Energy Transfer (TR-FRET) detection.
The assay reaction was initiated by the following: 2 μl of the mixture of 900 nM H3K4me3-biotin labeled peptide and 6 μM alpha-ketoglutaric acid with 2 μl of 11-point serial diluted inhibitor in 3% DMSO was added to each well of plate, followed by the addition of 2 μl of 3 nM Jarid1A to initiate the reaction. The reaction mixture was incubated at room temperature for 30 minutes, and terminated by the addition of 6 μl of 5 mM EDTA in LANCE detection buffer containing 50 nM Phycolink Streptavidin-allophycocyanin and 2 nM Europium-anti-H3K4me1-2 antibody.
as §4

[5] = tested on: KDM5A and KDM5B; assay: In vitro cell-based assay, ZR-75-1 cell line: tri-methyl H3K4 immuno-blotting (cellular inhibition of KDM5A/B); conditions: ZR-75-1 breast cancer cells, 72 hours, read-out: IC50 ZR-75-1 cell-MOA
Source text: This quantitative immuno-blotting assay measures the amount tri-methylated histone H3 at amino acid Lysine number 4, a specific substrate […] of the direct enzymatic activity of the histone demethylases KDM5A and KDM5B from extracts of the ZR-75-1 breast cancer cell line.
This assay is a fluorometric immunoassay for the quantification of tri-methyl H3K4 extracted from cells treated with test compound and is used as a measure of the cellular inhibition of KDM5A/B.
Cells were left in the presence of test compound for 72 hours. Extracts were prepared containing all of the cellular histone material using detergent based lysis and sonication methods. These lysates were subsequently normalized for total protein content using a colorimetric bicinchonic acid assay (MicroBCA Pierce/Thermo Scientific). Normalized cell extracts were then subjected to typical immuno-blotting procedures using NuPage reagents (Life Technologies). Electrophoretically separated histones were then transferred and immobilized using polyvinylidene difluoride membrane (Immobilon-FL Millipore). The amount of tri-methylated lysine 4 of histone H3 was detected using an antibody specific to the tri-methylated state (Cell Signaling Technologies) and quantified on an infrared imager using a densitometry software package (Odyssey CLx, Image Studio, Li-Cor). This background subtracted densitometry value was reported as a ration of the GAPDH amount for that sample and then calculated as a percent of the DMSO treated sample. The software package XL-fit (IDBS) was then used to calculate a relative IC50 value for the dilution series of a given test compound according to the equation: fit=(D+((Vmax*(x^n))/((x^n)+(Km^n)))).

Chain of JMJD2A (O75164 1-350): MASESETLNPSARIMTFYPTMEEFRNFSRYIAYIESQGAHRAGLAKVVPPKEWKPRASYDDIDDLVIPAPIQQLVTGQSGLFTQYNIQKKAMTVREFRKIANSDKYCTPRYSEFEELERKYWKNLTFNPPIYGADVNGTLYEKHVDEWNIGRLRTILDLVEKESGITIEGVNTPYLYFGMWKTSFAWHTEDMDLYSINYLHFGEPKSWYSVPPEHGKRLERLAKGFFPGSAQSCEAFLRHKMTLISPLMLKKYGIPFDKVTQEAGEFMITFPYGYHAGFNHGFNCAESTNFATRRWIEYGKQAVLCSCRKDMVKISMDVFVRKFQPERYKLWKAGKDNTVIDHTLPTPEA
Chain of Jarid1B (Q9UGL1 2-751): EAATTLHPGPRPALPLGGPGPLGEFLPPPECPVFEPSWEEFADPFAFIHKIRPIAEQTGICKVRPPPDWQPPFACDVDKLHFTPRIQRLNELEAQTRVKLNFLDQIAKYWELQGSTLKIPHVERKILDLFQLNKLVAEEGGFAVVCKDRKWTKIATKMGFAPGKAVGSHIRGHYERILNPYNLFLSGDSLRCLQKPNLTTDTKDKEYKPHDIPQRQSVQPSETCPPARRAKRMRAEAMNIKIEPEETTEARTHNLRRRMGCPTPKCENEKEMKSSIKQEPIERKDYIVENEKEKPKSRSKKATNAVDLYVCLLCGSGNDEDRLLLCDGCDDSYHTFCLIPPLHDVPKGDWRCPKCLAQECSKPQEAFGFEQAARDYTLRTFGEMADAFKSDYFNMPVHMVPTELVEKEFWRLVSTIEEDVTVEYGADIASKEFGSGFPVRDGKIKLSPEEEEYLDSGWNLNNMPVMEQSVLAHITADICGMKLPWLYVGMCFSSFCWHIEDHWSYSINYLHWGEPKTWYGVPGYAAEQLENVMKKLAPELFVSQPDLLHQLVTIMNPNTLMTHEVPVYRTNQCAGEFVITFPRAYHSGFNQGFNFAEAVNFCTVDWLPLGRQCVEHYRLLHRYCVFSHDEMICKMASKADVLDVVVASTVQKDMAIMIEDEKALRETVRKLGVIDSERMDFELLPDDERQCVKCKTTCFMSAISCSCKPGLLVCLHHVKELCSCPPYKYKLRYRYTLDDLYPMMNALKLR
Chain of Jarid1A (P29375 1-1090): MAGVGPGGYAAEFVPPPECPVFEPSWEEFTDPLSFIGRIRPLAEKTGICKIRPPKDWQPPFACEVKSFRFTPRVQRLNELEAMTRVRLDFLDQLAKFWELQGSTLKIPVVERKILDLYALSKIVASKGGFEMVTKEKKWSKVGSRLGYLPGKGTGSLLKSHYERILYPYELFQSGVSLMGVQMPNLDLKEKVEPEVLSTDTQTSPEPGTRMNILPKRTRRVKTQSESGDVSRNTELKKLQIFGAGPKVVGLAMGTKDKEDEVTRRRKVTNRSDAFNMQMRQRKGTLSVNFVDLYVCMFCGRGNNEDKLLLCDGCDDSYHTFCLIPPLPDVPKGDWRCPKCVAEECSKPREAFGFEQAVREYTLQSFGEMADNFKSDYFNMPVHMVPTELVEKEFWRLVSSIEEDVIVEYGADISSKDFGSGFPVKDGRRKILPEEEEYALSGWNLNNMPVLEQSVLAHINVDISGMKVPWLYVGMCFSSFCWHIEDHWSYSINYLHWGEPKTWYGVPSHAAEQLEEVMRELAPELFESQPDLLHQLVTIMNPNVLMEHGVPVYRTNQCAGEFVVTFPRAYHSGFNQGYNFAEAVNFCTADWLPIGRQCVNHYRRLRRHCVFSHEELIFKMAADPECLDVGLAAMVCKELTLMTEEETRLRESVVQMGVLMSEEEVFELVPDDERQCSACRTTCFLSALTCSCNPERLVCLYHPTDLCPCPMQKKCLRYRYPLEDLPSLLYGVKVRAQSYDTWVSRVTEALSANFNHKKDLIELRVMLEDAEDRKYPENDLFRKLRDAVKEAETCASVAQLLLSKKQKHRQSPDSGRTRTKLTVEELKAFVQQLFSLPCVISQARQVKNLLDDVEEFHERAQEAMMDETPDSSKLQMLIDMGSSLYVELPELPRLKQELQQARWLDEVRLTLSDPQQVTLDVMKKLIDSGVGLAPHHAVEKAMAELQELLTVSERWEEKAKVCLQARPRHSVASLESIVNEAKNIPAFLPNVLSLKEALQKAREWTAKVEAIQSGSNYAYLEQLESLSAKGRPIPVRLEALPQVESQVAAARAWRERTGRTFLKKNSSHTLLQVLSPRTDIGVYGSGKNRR
Chain of JMJD2C (Q9H3R0 2-372): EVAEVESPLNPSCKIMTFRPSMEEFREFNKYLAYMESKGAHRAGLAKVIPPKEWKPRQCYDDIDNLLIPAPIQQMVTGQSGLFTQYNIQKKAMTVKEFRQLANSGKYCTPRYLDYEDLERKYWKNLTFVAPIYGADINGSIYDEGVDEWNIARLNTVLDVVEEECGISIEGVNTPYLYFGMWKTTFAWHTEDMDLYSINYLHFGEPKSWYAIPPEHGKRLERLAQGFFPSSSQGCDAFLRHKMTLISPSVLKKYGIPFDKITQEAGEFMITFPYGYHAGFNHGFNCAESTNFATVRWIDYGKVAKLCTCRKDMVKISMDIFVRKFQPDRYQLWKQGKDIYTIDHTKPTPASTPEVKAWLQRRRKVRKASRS

IC50 [1]	IC50 [2]	IC50 [3]	IC50 [4]	IC50 [5]	SMILES
100 to 1000 nM	< 100 nM	100 to 1000 nM	< 100 nM	–	O=C(O)c1ccnc2cc(C(O)C3CCOCC3)[nH]c12 (racemic) [Example 43, (±)-2-[hydroxy(oxan-4-yl)methyl]-1H-pyrrolo[3,2-b]pyridine-7-carboxylic acid]
–	–	–	–	> 10 µM	COC(=O)c1ccnc2cc(C(C)(O)c3ccccc3)[nH]c12 (racemic) [Example 45, (±)-methyl 2-(1-hydroxy-1-phenylethyl)-1H-pyrrolo[3,2-b]pyridine-7-carboxylate]
100 to 1000 nM	100 to 1000 nM	–	< 100 nM	> 10 µM	CC(O)(c1ccccc1)c1cc2nccc(C(=O)O)c2[nH]1 (racemic) [Example 46, (±)-2-(1-hydroxy-1-phenylethyl)-1H-pyrrolo[3,2-b]pyridine-7-carboxylic acid]
< 100 nM	< 100 nM	–	< 100 nM	> 10 µM	Cn1nccc1C(O)c1cc2nccc(C(=O)O)c2[nH]1 (racemic) [Example 48, (±)-2-[hydroxy-(2-methylpyrazol-3-yl)methyl]-1H-pyrrolo[3,2-b]pyridine-7-carboxylic acid]
100 to 1000 nM	< 100 nM	–	< 100 nM	> 10 µM	O=C(O)c1ccnc2cc(C(O)c3ccccc3Cl)[nH]c12 (racemic) [Example 72, (±)-2-[(2-chlorophenyl)-hydroxymethyl]-1H-pyrrolo[3,2-b]pyridine-7-carboxylic acid]
100 to 1000 nM	< 100 nM	–	< 100 nM	> 10 µM	O=C(O)c1ccnc2cc(Cc3ccc(Cl)cc3)[nH]c12 [Example 44, 2-[(4-chlorophenyl)methyl]-1H-pyrrolo[3,2-b]pyridine-7-carboxylic acid]
100 to 1000 nM	< 100 nM	–	< 100 nM	> 10 µM	Cc1ccccc1OCc1cc2nccc(C(=O)O)c2[nH]1 [Example 66, 2-[(2-methylphenoxy)methyl]-1H-pyrrolo[3,2-b]pyridine-7-carboxylic acid]
< 100 nM	< 100 nM	< 100 nM	< 100 nM	–	O=C(O)c1ccnc2cc(C(=O)N3CCCC3)[nH]c12 [Example 99, 2-(pyrrolidin-1-ylcarbonyl)-1H-pyrrolo[3,2-b]pyridine-7-carboxylic acid]

Continued, molecule first:

SMILES	IC50 [1]	IC50 [2]	IC50 [3]	IC50 [4]	IC50 [5]
COc1cccc(C(O)c2cc3nccc(C(=O)O)c3[nH]2)c1 (racemic) [Example 24, (±)-2-[hydroxy-(3-methoxyphenyl)methyl]-1H-pyrrolo[3,2-b]pyridine-7-carboxylic acid]	100 to 1000 nM	< 100 nM	100 to 1000 nM	< 100 nM	–
COC(=O)c1ccnc2cc(C(O)C3CCOCC3)[nH]c12 (racemic) [Example 42, (±)-methyl 2-[hydroxy(oxan-4-yl)methyl]-1H-pyrrolo[3,2-b]pyridine-7-carboxylate]	–	–	–	–	> 10 µM
COC(=O)c1ccnc2cc(C(O)c3ccnn3C)[nH]c12 (racemic) [Example 47, (±)-methyl 2-[hydroxy-(2-methylpyrazol-3-yl)methyl]-1H-pyrrolo[3,2-b]pyridine-7-carboxylate]	–	–	–	–	> 10 µM
O=C(O)c1ccnc2cc(-c3ccccc3)[nH]c12 [Example 2, 2-phenyl-1H-pyrrolo[3,2-b]pyridine-7-carboxylic acid]	100 to 1000 nM	100 to 1000 nM	100 to 1000 nM	100 to 1000 nM	–
Cc1ccccc1-c1cc2nccc(C(=O)O)c2[nH]1 [Example 3, 2-(2-methylphenyl)-1H-pyrrolo[3,2-b]pyridine-7-carboxylic acid]	100 to 1000 nM	100 to 1000 nM	< 100 nM	100 to 1000 nM	–
COC(=O)c1ccnc2cc(Cc3ccccc3)[nH]c12 [Example 6, methyl 2-benzyl-1H-pyrrolo[3,2-b]pyridine-7-carboxylate]	> 10000 nM	> 10000 nM	–	> 10000 nM	> 10 µM
COc1cccc(Cc2cc3nccc(C(=O)O)c3[nH]2)c1 [Example 34, 2-[(3-methoxyphenyl)methyl]-1H-pyrrolo[3,2-b]pyridine-7-carboxylic acid]	100 to 1000 nM	100 to 1000 nM	–	< 100 nM	> 10 µM
Cc1cccc(Cc2cc3nccc(C(=O)O)c3[nH]2)c1 [Example 36, 2-[(3-methylphenyl)methyl]-1H-pyrrolo[3,2-b]pyridine-7-carboxylic acid]	< 100 nM	100 to 1000 nM	–	< 100 nM	> 10 µM
O=C(O)c1ccnc2cc(COc3ccccc3)[nH]c12 [Example 39, 2-(phenoxymethyl)-1H-pyrrolo[3,2-b]pyridine-7-carboxylic acid]	< 100 nM	< 100 nM	100 to 1000 nM	< 100 nM	–
O=C(O)c1ccnc2cc(COc3ccc(F)cc3)[nH]c12 [Example 60, 2-[(4-fluorophenoxy)methyl]-1H-pyrrolo[3,2-b]pyridine-7-carboxylic acid]	100 to 1000 nM	< 100 nM	–	< 100 nM	1 to 10 µM
O=C(O)c1ccnc2cc(COc3ccc(Cl)cc3)[nH]c12 [Example 64, 2-[(4-chlorophenoxy)methyl]-1H-pyrrolo[3,2-b]pyridine-7-carboxylic acid]	< 100 nM	< 100 nM	–	< 100 nM	1 to 10 µM
Cc1cccc(OCc2cc3nccc(C(=O)O)c3[nH]2)c1 [Example 74, 2-[(3-methylphenoxy)methyl]-1H-pyrrolo[3,2-b]pyridine-7-carboxylic acid]	< 100 nM	< 100 nM	–	< 100 nM	> 10 µM
O=C(O)c1ccnc2cc(Cc3ccc(F)cc3)[nH]c12 [Example 101, 2-[(4-fluorophenyl)methyl]pyrrolo[3,2-b]pyridine-7-carboxylic acid]	< 100 nM	< 100 nM	–	< 100 nM	> 10 µM
O=C(O)c1ccnc2cc(Cc3ccc(F)c(F)c3)[nH]c12 [Example 126, 2-(3,4-difluorobenzyl)-1H-pyrrolo[3,2-b]pyridine-7-carboxylic acid]	< 100 nM	1000 to 10000 nM	< 100 nM	1000 to 10000 nM	–
O=C(O)c1ccnc2cc(Cc3ccc(Cl)c(Cl)c3)[nH]c12 [Example 130, 2-(3,4-dichlorobenzyl)-1H-pyrrolo[3,2-b]pyridine-7-carboxylic acid]	< 100 nM	1000 to 10000 nM	100 to 1000 nM	1000 to 10000 nM	–
O=C(O)c1ccnc2cc(Cc3cc(F)c(Cl)c(Cl)c3)[nH]c12 [Example 132, 2-(3,4-dichloro-5-fluorobenzyl)-1H-pyrrolo[3,2-b]pyridine-7-carboxylic acid]	100 to 1000 nM	1000 to 10000 nM	100 to 1000 nM	1000 to 10000 nM	–
